Experimental data taken from ChEMBL document CHEMBL5532713, “Ergone Derivatives from the Deep-Sea-Derived Fungus Aspergillus terreus YPGA10 and 25,28-Dihydroxyergone-Induced Apoptosis in Human Colon Cancer SW620 Cells” (J Nat Prod, 2024).
Active and inactive are the calls of the source. The calls are words filed in the database; no cut-off is given here.

Legend:
U-937 [1] = test: Effect on cell survival in RSL3-induced human U-937 cells at 50 uM; format: functional, cell-based
SW-620 [2] = test: Antiproliferative activity against human SW-620 cells assessed as reduction in cell viability incubated for 48 hrs by CCK-8 assay; format: functional, cell-based; conditions: for IC50: SW-620, 48 h
SW-620 [3] = test: Induction of apoptosis in human SW-620 cells assessed as late apoptotic cells at 5 uM incubated for 48 hrs by Annexin V FITC/PI staining based flow cytometry analysis (reference value: 4.90 %); format: functional
PANC-1 = test: Antiproliferative activity against human PANC-1 cells assessed as reduction in cell viability by CCK-8 assay; format: functional, cell-based
SW-620 [4] = test: Antiproliferative activity against human SW-620 cells assessed as inhibition of cell proliferation by measuring decrease in fluorescence intensity incubated for 48 hrs by EdU incorporation based fluorescence microscopic analysis; format: functional; conditions: dose 1.25-5 µM
SW-620 [5] = test: Antiproliferative activity against human SW-620 cells assessed as change in F-actin cytoskeleton morphology at 1.25 uM incubated for 48 hrs by DAPI staining based laser confocal microscope analysis; format: functional, cell-based
SW-620 [6] = test: Antiproliferative activity against human SW-620 cells assessed as reduction in cell viability at 40 uM incubated for 48 hrs by CCK-8 assay; format: functional, cell-based
SW-620 [7] = test: Induction of apoptosis in human SW-620 cells assessed as early apoptotic cells at 2.5 uM incubated for 48 hrs by Annexin V FITC/PI staining based flow cytometry analysis (reference value: 5.00 %); format: functional
SW-620 [8] = test: Induction of apoptosis in human SW-620 cells assessed as viable cells at 2.5 uM incubated for 48 hrs by Annexin V FITC/PI staining based flow cytometry analysis (reference value: 90.0 %); format: functional; conditions: read-out: Activity
SW-620 [9] = test: Induction of apoptosis in human SW-620 cells assessed as decrease in Bcl-2 expression at 1.25 to 5 uM incubated for 48 hrs by Western blotting analysis; format: functional, cell-based; conditions: dose 1.25-5 µM
SW-620 [10] = test: Induction of apoptosis in human SW-620 cells assessed as early apoptotic cells at 5 uM incubated for 48 hrs by Annexin V FITC/PI staining based flow cytometry analysis (reference value: 5.00 %); format: functional
SW-620 [11] = test: Induction of apoptosis in human SW-620 cells assessed as late apoptotic cells at 2.5 uM incubated for 48 hrs by Annexin V FITC/PI staining based flow cytometry analysis (reference value: 4.90 %); format: functional
SW-620 [12] = test: Induction of apoptosis in human SW-620 cells assessed as necrotic cells at 2.5 uM incubated for 48 hrs by Annexin V FITC/PI staining based flow cytometry analysis (reference value: 0.057 %); format: functional
SW-620 [13] = test: Induction of apoptosis in human SW-620 cells assessed as increase in Bax/Bcl-2 ratio incubated for 48 hrs by Western blotting analysis; format: functional, cell-based; conditions: dose 1.25-5 µM
[14] = Cytotoxicity against human BEAS-2B cells assessed as inhibition of cell growth at 40 uM incubated for 48 hrs by CCK-8 assay relative to control; format: toxicity, cell-based
MCF7 = test: Antiproliferative activity against human MCF7 cells assessed as reduction in cell viability by CCK-8 assay; format: functional, cell-based; conditions: dose 40.0 µM, time 48.0 hrs
SW-620 [15] = test: Induction of apoptosis in human SW-620 cells assessed as late apoptotic cells at 1.25 uM incubated for 48 hrs by Annexin V FITC/PI staining based flow cytometry analysis (reference value: 4.90 %); format: functional
SMMC-7721 = test: Antiproliferative activity against human SMMC-7721 cells assessed as reduction in cell viability by CCK-8 assay; format: functional, cell-based
SW-620 [16] = test: Induction of apoptosis in human SW-620 cells assessed as necrotic cells at 1.25 uM incubated for 48 hrs by Annexin V FITC/PI staining based flow cytometry analysis (reference value: 0.057 %); format: functional
SW-620 [17] = test: Induction of apoptosis in human SW-620 cells assessed as necrotic cells at 5 uM incubated for 48 hrs by Annexin V FITC/PI staining based flow cytometry analysis (reference value: 0.057 %); format: functional
SW-620 [18] = test: Induction of apoptosis in human SW-620 cells assessed as increase in Bax expression at 1.25 to 5 uM incubated for 48 hrs by Western blotting analysis; format: functional, cell-based; conditions: dose 1.25-5 µM
SW-620 [19] = test: Induction of apoptosis in human SW-620 cells assessed as viable cells at 5 uM incubated for 48 hrs by Annexin V FITC/PI staining based flow cytometry analysis (reference value: 90.0 %); format: functional; conditions: read-out: Activity
SW-620 [20] = test: Antiproliferative activity against human SW-620 cells assessed as change in F-actin cytoskeleton density at 2.5 to 5 uM incubated for 48 hrs by DAPI staining based laser confocal microscope analysis; format: functional, cell-based; conditions: dose 2.5-5 µM
A549 = test: Antiproliferative activity against human A549 cells assessed as reduction in cell viability by CCK-8 assay; format: functional, cell-based
MDA-MB-231 = test: Antiproliferative activity against human MDA-MB-231 cells assessed as reduction in cell viability by CCK-8 assay; format: functional, cell-based; conditions: dose 40.0 µM, time 48.0 hrs
SW-620 [21] = test: Induction of apoptosis in human SW-620 cells assessed as early apoptotic cells at 1.25 uM incubated for 48 hrs by Annexin V FITC/PI staining based flow cytometry analysis (reference value: 5.00 %); format: functional
SW-620 [22] = test: Induction of apoptosis in human SW-620 cells assessed as viable cells at 1.25 uM incubated for 48 hrs by Annexin V FITC/PI staining based flow cytometry analysis (reference value: 90.0 %); format: functional; conditions: read-out: Activity
U-937 [23] = test: Inhibition of RSL3-induced ferroptosis in human U-937 cells; format: functional, cell-based
K562 = test: Antiproliferative activity against human K562 cells assessed as reduction in cell viability incubated for 48 hrs by CCK-8 assay; format: functional, cell-based; conditions: K562, 48 h
Jurkat = test: Antiproliferative activity against human Jurkat cells assessed as reduction in cell viability incubated for 48 hrs by CCK-8 assay; format: functional, cell-based
THP-1 = test: Antiproliferative activity against human THP-1 cells assessed as reduction in cell viability incubated for 48 hrs by CCK-8 assay; format: functional, cell-based; conditions: THP-1, 48 h
U-937 [24] = test: Antiproliferative activity against human U-937 cells assessed as reduction in cell viability incubated for 48 hrs by CCK-8 assay; format: toxicity, cell-based; conditions: u-937, 48 h, 50 µM
CCRF-CEM = test: Antiproliferative activity against human CCRF-CEM cells assessed as reduction in cell viability incubated for 48 hrs by CCK-8 assay; format: functional, cell-based

## C[C@H](/C=C/[C@H](C)C(C)(C)O)[C@H]1C[C@H](O)C2=C3C=CC4=CC(=O)CC[C@]4(C)[C@H]3C[C@@H](O)[C@@]21C
U-937 [1]
  Activity: Active

## CO[C@H]1C[C@H]([C@H](C)/C=C/[C@H](CO)C(C)(C)O)[C@]2(C)C1=C1C=CC3=CC(=O)CC[C@]3(C)[C@H]1C[C@H]2O
U-937 [1]
  Activity: Active

## COc1cccc2c1C(=O)c1c(O)c3c(c(O)c1C2=O)C[C@@](O)(C(=O)CO)C[C@@H]3O[C@H]1C[C@H](N)[C@H](O)[C@H](C)O1 [DOXORUBICIN]
SW-620 [2]
  IC50: 2.3 µM

## CO[C@@H]1C[C@H]([C@H](C)/C=C/[C@H](CO)C(C)(C)O)[C@]2(C)C1=C1C=CC3=CC(=O)CC[C@]3(C)[C@H]1C[C@H]2O
U-937 [1]
  Activity: Active

## C[C@H](/C=C/[C@H](CO)C(C)(C)O)[C@H]1CCC2=C3C=CC4=CC(=O)CC[C@]4(C)[C@H]3CC[C@@]21C
SW-620 [3]
  Activity: 80.8%
PANC-1
  Activity: inactive
SW-620 [4]
  Activity: Dose-Dependent Effect
SW-620 [5]
  Activity: Active
SW-620 [6]
  Activity: Active
SW-620 [7]
  Activity: 12.4%
SW-620 [8]
  viability at 2.5 µM: 23.6%
SW-620 [9]
  Activity: Active
SW-620 [10]
  Activity: 14.6%
SW-620 [11]
  Activity: 61.4%
SW-620 [12]
  Activity: 2.55%
SW-620 [13]
  Activity: Dose-Dependent Effect
[14]
  inhibition at 48 h, 40 µM: < 7%
MCF7
  Activity: inactive
SW-620 [15]
  Activity: 14.1%
SMMC-7721
  Activity: inactive
SW-620 [16]
  Activity: 0.63%
SW-620 [17]
  Activity: 1.23%
SW-620 [18]
  Activity: Active
SW-620 [19]
  viability at 5 µM: 3.35%
SW-620 [2]
  Activity: Dose-Dependent Effect
  IC50: 3.1 µM
SW-620 [20]
  Activity: Active
A549
  Activity: inactive
MDA-MB-231
  Activity: inactive
SW-620 [21]
  Activity: 6.2%
SW-620 [22]
  viability at 1.25 µM: 79.1%

## C[C@H](/C=C/[C@H](CO)C(C)(C)O)[C@H]1C[C@H](O)C2=C3C=CC4=CC(=O)CC[C@]4(C)[C@H]3C[C@@H](O)[C@@]21C
U-937 [1]
  Activity: Active

## C[C@H](/C=C/[C@H](CO)C(C)(C)O)[C@H]1CC(=O)C2=C3C=CC4=CC(=O)CC[C@]4(C)[C@H]3C[C@@H](O)[C@@]21C
U-937 [1]
  Activity: Active

## CC(=O)O[C@H]1C[C@H]([C@H](C)/C=C/[C@H](C)C(C)(O)CO)[C@]2(C)C1=C1C=CC3=CC(=O)CC[C@]3(C)[C@H]1C[C@H]2O (stereo not given in full)
U-937 [23]
  EC50: 30 µM

## C[C@H](/C=C/[C@H](CO)C(C)(C)O)[C@H]1CCC2=C3C=CC4=CC(=O)CC[C@]4(C)[C@H]3C[C@@H](O)[C@@]21C
K562
  IC50: 5.7 µM
PANC-1
  Activity: inactive
SW-620 [6]
  Activity: Active
Jurkat
  IC50: 5.7 µM
THP-1
  IC50: 5.7 µM
[14]
  inhibition at 48 h, 40 µM: < 7%
U-937 [24]
  Activity: Toxic
MCF7
  Activity: inactive
SMMC-7721
  Activity: inactive
CCRF-CEM
  IC50: 5.7 µM
SW-620 [2]
  Activity: Dose-Dependent Effect
  IC50: 8.4 µM
U-937 [1]
  Activity: Active
A549
  Activity: inactive
MDA-MB-231
  Activity: inactive

## CC(=O)O[C@H]1C[C@H]([C@H](C)/C=C/[C@H](CO)C(C)(C)O)[C@]2(C)C1=C1C=CC3=CC(=O)CC[C@]3(C)[C@H]1C[C@H]2O
U-937 [1]
  Activity: Active
